The values below are quoted from earlier work in patent publication US11253518B2, “Methods and compositions for the treatment of hair loss” (Aneira Pharma, Inc., priority 2019, dated 2022).

For orientation: EC50 means the concentration at which the effect is half-maximal.

Data set [1] deals with T1, human FP receptors (Homo sapiens, UniProt P43088).
Data set [2] addresses T1, human FP receptors. This is another data set of the same source.
The test system of another data set is hair growth. Particulars: for hair growth: McCarey 2004.
The subject of data set [3] is elevated intraocular pressure. Particulars: glaucomatous monkeys; Gagliuso 2004.
Data set [4] relates to elevated intraocular pressure. The following applies: some human glaucoma patients; Gandolfi 2003.
The conditions of data set [5]: believed.
The subject of data set [6] is production of dihydrotestosterone (DHT). The following applies: oral; including prostate gland and scalp.
Test in data set [7]: not given
The source holds these as a separate data set.

Each structure is given as a SMILES string. ≈ marks a conversion by molar mass, not a printed value. Like-named read-outs stand apart in the source and are kept apart here.

T1 sequence (P43088 whole entry): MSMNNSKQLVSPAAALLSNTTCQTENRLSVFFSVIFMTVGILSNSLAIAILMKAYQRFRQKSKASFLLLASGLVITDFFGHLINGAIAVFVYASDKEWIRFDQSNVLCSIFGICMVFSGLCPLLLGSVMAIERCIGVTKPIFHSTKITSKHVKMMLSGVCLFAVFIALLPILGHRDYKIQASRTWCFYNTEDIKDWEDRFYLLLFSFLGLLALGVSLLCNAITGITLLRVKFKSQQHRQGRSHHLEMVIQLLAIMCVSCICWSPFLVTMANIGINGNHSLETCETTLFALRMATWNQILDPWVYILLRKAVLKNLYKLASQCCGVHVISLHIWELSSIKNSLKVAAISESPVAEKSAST

On to `O=C(O)CCC/C=C\C[C@@H]1[C@@H](CC[C@@H](O)CCc2ccccc2)[C@H](O)C[C@@H]1O` [Latanoprost free acid], for which, on human FP receptors [1], the “potency relative to PGF2α” value is recorded as “twice the potency”. Further, the EC50 at human FP receptors [1] (FP receptor agonist) was 3.6 nM. For the same compound, the “potency as FP receptor ligand relative to latanoprost” value at human FP receptors [2] was “two-hundred times more potent”.

On to `CCCCCCCC(=O)CC[C@@H]1[C@@H](C/C=C\CCCC(=O)OC(C)C)[C@@H](O)C[C@H]1O` [Uenoprostone isopropyl ester, Unoprostone isopropyl ester], for which the “incidence of iris pigmentation and eyelash changes” value in the data set with hair growth (0.15%, two randomized clinical trials) is reported as “Low incidence”. Besides, the hair growth entry with hair growth was “no hair growth”.

Take `CCNC(=O)CCC/C=C\C[C@@H]1[C@@H](/C=C/[C@@H](O)CCc2ccccc2)[C@H](O)C[C@@H]1O` [bimatoprost, Bimatoprost]: the “effect on intraocular pressure together with latanoprost” value in [3] is “additive”. Moreover, the “reduction of elevated intraocular pressure in latanoprost non-responders” value in data set [4] is “responsive”. For the same compound, the “amount converted into bimatoprost free acid” value in [5] is on record as “under 5%”.

`CC(C)(C)NC(=O)[C@H]1CC[C@H]2[C@@H]3CC[C@H]4NC(=O)C=C[C@]4(C)[C@H]3CC[C@]12C` [finasteride, (1S,3aS,3bS,5aR,9aR,9bS,11aS)-N-tert-butyl-9a,11a-dimethyl-7-oxo-1,2,3,3a,3b,4,5,5a,6,9b,10,11-dodecahydroindeno[5,4-f]quinoline-1-carboxamide]: in data set [6], the “decrease of production of dihydrotestosterone (DHT)” value is recorded as “about 70%”.

Consider `CC(C)OC(=O)CCC/C=C\C[C@@H]1[C@@H](CC[C@@H](O)CCc2ccccc2)[C@H](O)C[C@@H]1O` [latanoprost, isopropyl ester of 17-phenyl-13,14-dihydro prostaglandin F2a], for which the solubility is 400 µg/mL (≈ 925 µM) (1:4 solution of ethanol:PBS (pH 7.2)); “approximately 50 μg/mL” (PBS (pH 7.2)); no less than 5% (propylene glycol, methanol, ethanol and 2-propanol). Moreover, the “stable for” value is reported as “no more than 48 hours” in [7] (acidic or basic aqueous solutions) and “up to one month” in data set [7] (neutral aqueous solutions, room temperature).

Take `CCCCCCCC(=O)CC[C@@H]1[C@@H](C/C=C\CCCC(=O)O)[C@@H](O)C[C@H]1O` [uenoprostone free acid]: the hair growth entry in the data set with hair growth is “no hair growth”.
